Common to all, as to format: functional, organism-based
For assay [1], the system named is Staphylococcus aureus. The experiment in a line: Antimicrobial activity against Staphylococcus aureus assessed as visible growth at 1 ug/ml after 24 hrs.
The subject of assay [2] is Staphylococcus aureus. In words: Antimicrobial activity against Staphylococcus aureus assessed as visible growth at 1.4 ug/ml after 24 hrs.
Assay [3] relates to Staphylococcus aureus. The experiment in a line: Antimicrobial activity against Staphylococcus aureus assessed as visible growth at 2.2 ug/ml after 24 hrs.
Assay [4] deals with Staphylococcus aureus. In words: Antimicrobial activity against Staphylococcus aureus assessed as visible growth at 2.6 ug/ml after 24 hrs.
In assay [5] the test system is Staphylococcus aureus. In words: Antimicrobial activity against Staphylococcus aureus expressing mgrA C12S mutant gene assessed as visible growth at 0.6 ug/ml after 24 hrs in presence of 20 uM paraquat.
Assay [6] relates to Staphylococcus aureus. The experiment in a line: Antimicrobial activity against Staphylococcus aureus expressing mgrA C12S mutant gene assessed as visible growth at 1 ug/ml after 24 hrs.
Assay [7] relates to Staphylococcus aureus. The experiment in a line: Antimicrobial activity against Staphylococcus aureus expressing mgrA C12S mutant gene harboring Pyj335-His-mgrA C12S assessed as visible growth at 1.1 ug/ml after 24 hrs.
In assay [8] the test system is Staphylococcus aureus. The experiment in a line: Antimicrobial activity against Staphylococcus aureus expressing mgrA C12S mutant gene harboring plasmid Pyj335-His-mgrA assessed as visible growth at 1.1 ug/ml after 24 hrs.
Assay [9] concerns Staphylococcus aureus. In words: Antimicrobial activity against Staphylococcus aureus expressing mgrA C12S mutant gene harboring plasmid Pyj335-His-mgrA assessed as visible growth at 1.1 ug/ml after 24 hrs in presence of 100 uM hydrogen peroxide.
In assay [10] the test system is Staphylococcus aureus. The experiment in a line: Antimicrobial activity against Staphylococcus aureus expressing mgrAC12S mutant gene harboring plasmid Pyj335 assessed as visible growth at 1.1 ug/ml after 24 hrs in presence of 100 uM hydrogen peroxide.
Assay [11] relates to Staphylococcus aureus. In words: Antimicrobial activity against Staphylococcus aureus expressing mgrAC12S mutant gene assessed as visible growth at 1.1 ug/ml after 24 hrs in presence of 100 uM hydrogen peroxide.
In assay [12] the test system is Staphylococcus aureus. The experiment in a line: Antimicrobial activity against Staphylococcus aureus assessed as visible growth at 1.1 ug/ml after 24 hrs in presence of 100 uM hydrogen peroxide.
In assay [13] the test system is Staphylococcus aureus. The experiment in a line: Antimicrobial activity against Staphylococcus aureus expressing mgrA C12S mutant gene assessed as visible growth at 1.1 ug/ml after 24 hrs in presence of 25 uM paraquat.
Assay [14] has as its system Staphylococcus aureus. In words: Antimicrobial activity against Staphylococcus aureus expressing mgrA C12S mutant gene assessed as visible growth at 2.2 ug/ml after 24 hrs in presence of 20 uM paraquat.
The subject of assay [15] is Staphylococcus aureus. The experiment in a line: Antimicrobial activity against Staphylococcus aureus expressing mgrA C12S mutant gene assessed as visible growth at 2.6 ug/ml after 24 hrs.
The subject of assay [16] is Staphylococcus aureus. In words: Antimicrobial activity against Staphylococcus aureus expressing mgrA C12S mutant gene assessed as visible growth at 2.6 ug/ml after 24 hrs in presence of 20 uM paraquat.
Assay [17] deals with Staphylococcus aureus. In words: Antimicrobial activity against Staphylococcus aureus expressing mgrA C12S mutant gene harboring plasmid Pyj335 assessed as visible growth at 1 ug/ml after 24 hrs.
For assay [18], the system named is Staphylococcus aureus. The experiment in a line: Antimicrobial activity against Staphylococcus aureus expressing mgrA C12S mutant gene harboring plasmid Pyj335 assessed as visible growth at 1.8 ug/ml after 24 hrs in presence of 20 uM paraquat.
Assay [19] deals with Staphylococcus aureus. In words: Antimicrobial activity against Staphylococcus aureus expressing mgrA C12S mutant gene harboring plasmid Pyj335 assessed as visible growth at 2.2 ug/ml after 24 hrs in presence of 20 uM paraquat.
In assay [20] the test system is Staphylococcus aureus. The experiment in a line: Antimicrobial activity against Staphylococcus aureus expressing mgrA C12S mutant gene harboring Pyj335-His-mgrA assessed as visible growth at 1 ug/ml after 24 hrs in presence of 20 uM paraquat.
The test system of assay [21] is Staphylococcus aureus. In words: Antimicrobial activity against Staphylococcus aureus expressing mgrA C12S mutant gene harboring Pyj335-His-mgrA assessed as visible growth at 1.4 ug/ml after 24 hrs in presence of 20 uM paraquat.
Assay [22] has as its system Staphylococcus aureus. The experiment in a line: Antimicrobial activity against Staphylococcus aureus expressing mgrA C12S mutant gene harboring plasmid Pyj335-His-mgrA assessed as visible growth at 1.8 ug/ml after 24 hrs in presence of 20 uM paraquat.
Assay [23] concerns Staphylococcus aureus. The experiment in a line: Antimicrobial activity against Staphylococcus aureus assessed as visible growth at 0.45 ug/ml after 24 hrs.
For assay [24], the system named is Staphylococcus aureus. The experiment in a line: Antimicrobial activity against Staphylococcus aureus assessed as visible growth at 0.75 ug/ml after 24 hrs in presence of 20 uM paraquat.
Assay [25] has as its system Staphylococcus aureus. The experiment in a line: Antimicrobial activity against Staphylococcus aureus expressing mgrA C12S mutant gene assessed as visible growth at 0.25 ug/ml after 24 hrs in presence of 20 uM paraquat.
In assay [26] the test system is Staphylococcus aureus. In words: Antimicrobial activity against Staphylococcus aureus expressing mgrA C12S mutant gene assessed as visible growth at 0.35 ug/ml after 24 hrs.
The test system of assay [27] is Staphylococcus aureus. In words: Antimicrobial activity against Staphylococcus aureus expressing mgrA C12S mutant gene assessed as visible growth at 0.65 ug/ml after 24 hrs in presence of 20 uM paraquat.
The subject of assay [28] is Staphylococcus aureus. In words: Antimicrobial activity against Staphylococcus aureus expressing mgrA C12S mutant gene assessed as visible growth at 0.20 ug/ml after 24 hrs in presence of 25 uM paraquat.
Assay [29] has as its system Staphylococcus aureus. In words: Antimicrobial activity against Staphylococcus aureus expressing mgrA C12S mutant gene harboring plasmid Pyj335 assessed as visible growth at 0.35 ug/ml after 24 hrs.
Assay [30] concerns Staphylococcus aureus. The experiment in a line: Antimicrobial activity against Staphylococcus aureus expressing mgrA C12S mutant gene harboring plasmid Pyj335 assessed as visible growth at 0.55 ug/ml after 24 hrs in presence of 20 uM paraquat.
Assay [31] concerns Staphylococcus aureus. In words: Antimicrobial activity against Staphylococcus aureus expressing mgrA C12S mutant gene harboring plasmid Pyj335 assessed as visible growth at 0.65 ug/ml after 24 hrs in presence of 20 uM paraquat.
The test system of assay [32] is Staphylococcus aureus. The experiment in a line: Antimicrobial activity against Staphylococcus aureus expressing mgrA C12S mutant gene harboring plasmid Pyj335 assessed as visible growth at 0.75 ug/ml after 24 hrs.
Assay [33] deals with Staphylococcus aureus. In words: Antimicrobial activity against Staphylococcus aureus expressing mgrA C12S mutant gene harboring Pyj335-His-mgrA assessed as visible growth at 0.25 ug/ml after 24 hrs.
Assay [34] relates to Staphylococcus aureus. In words: Antimicrobial activity against Staphylococcus aureus expressing mgrA C12S mutant gene harboring Pyj335-His-mgrA assessed as visible growth at 0.25 ug/ml after 24 hrs in presence of 20 uM paraquat.
The test system of assay [35] is Staphylococcus aureus. The experiment in a line: Antimicrobial activity against Staphylococcus aureus expressing mgrA C12S mutant gene harboring Pyj335-His-mgrA assessed as visible growth at 0.45 ug/ml after 24 hrs.
The subject of assay [36] is Staphylococcus aureus. The experiment in a line: Antimicrobial activity against Staphylococcus aureus expressing mgrA C12S mutant gene harboring Pyj335-His-mgrA assessed as visible growth at 0.55 ug/ml after 24 hrs in presence of 20 uM paraquat.
Assay [37] relates to Staphylococcus aureus. In words: Antimicrobial activity against Staphylococcus aureus expressing mgrA C12S mutant gene harboring Pyj335-His-mgrA assessed as visible growth at 0.65 ug/ml after 24 hrs.
Assay [38] relates to Staphylococcus aureus. In words: Antimicrobial activity against Staphylococcus aureus expressing mgrA C12S mutant gene harboring Pyj335-His-mgrA assessed as visible growth at 0.75 ug/ml after 24 hrs in presence of 20 uM paraquat.

The source made the active and inactive calls. No cut-off for these calls is given here.

Turning to `CN[C@H](CC(C)C)C(=O)N[C@H]1C(=O)N[C@@H](CC(N)=O)C(=O)N[C@H]2C(=O)N[C@H]3C(=O)N[C@H](C(=O)N[C@H](C(=O)O)c4cc(O)cc(O)c4-c4cc3ccc4O)[C@H](O)c3ccc(c(Cl)c3)Oc3cc2cc(c3O[C@@H]2O[C@H](CO)[C@@H](O)[C@H](O)[C@H]2O[C@H]2C[C@](C)(N)[C@H](O)[C@H](C)O2)Oc2ccc(cc2Cl)[C@H]1O` [VANCOMYCIN], the result in the assay with Staphylococcus aureus [1], in the assay on Staphylococcus aureus [5], in the assay on Staphylococcus aureus [6], in the assay with Staphylococcus aureus [10], in the assay on Staphylococcus aureus [11] and in the assay with Staphylococcus aureus [13] was inactive. In addition, the result with Staphylococcus aureus [14], in the assay with Staphylococcus aureus [17], in the assay with Staphylococcus aureus [18], in the assay with Staphylococcus aureus [19], in the assay on Staphylococcus aureus [20] and in the assay on Staphylococcus aureus [21] was inactive. Besides, the result in the assay on Staphylococcus aureus [22] was inactive. The result with Staphylococcus aureus [2], in the assay on Staphylococcus aureus [3], in the assay on Staphylococcus aureus [4], in the assay on Staphylococcus aureus [7], in the assay with Staphylococcus aureus [8] and with Staphylococcus aureus [9] was Active. In addition, the outcome with Staphylococcus aureus [12], with Staphylococcus aureus [15] and in the assay on Staphylococcus aureus [16] was Active.
As for `O=C(O)c1cn(C2CC2)c2cc(N3CCNCC3)c(F)cc2c1=O` [CIPROFLOXACIN], the outcome in the assay on Staphylococcus aureus [23], in the assay with Staphylococcus aureus [24], in the assay with Staphylococcus aureus [32], in the assay with Staphylococcus aureus [35], in the assay on Staphylococcus aureus [37] and in the assay with Staphylococcus aureus [38] was Active. The result in the assay on Staphylococcus aureus [25], in the assay on Staphylococcus aureus [26], with Staphylococcus aureus [27], in the assay with Staphylococcus aureus [28], in the assay on Staphylococcus aureus [29] and in the assay with Staphylococcus aureus [30] was inactive. Also, the outcome in the assay with Staphylococcus aureus [31], in the assay on Staphylococcus aureus [33], with Staphylococcus aureus [34] and in the assay on Staphylococcus aureus [36] was inactive.

These data come from ChEMBL document CHEMBL1240316, “An oxidation-sensing mechanism is used by the global regulator MgrA in Staphylococcus aureus” (2006).
